Experiments:
[1] = Ethinylestradiol pharmacokinetics alone and with ritonavir in healthy female volunteers; format: in vivo, human
Method: This was an open-label, single-center study in healthy female volunteers who had not received an oral contraceptive for a minimum of six months prior to study start. Subjects received the first dose of oral contraceptive containing 50 μg of ethinyl estradiol on Day 1. […] On Day 15, 300 mg q12h was administered, 400 mg q12h was given on Day 16, and 500 mg q12h was administered thereafter. […] Blood samples for ethinylestradiol concentrations were collected for 48 h after each of the oral contraceptive doses.
Twenty-seven subjects were enrolled in the study. […] Data from these four subjects were therefore excluded from summary statistics. The mean ±SD age of the 23 subjects who completed the study was 34±10 yrs (range 19 to 45 yrs), the mean ±SD weight was 67.3±10.9 kg (range 50.8 to 90.3 kg), and the mean ±SD height was 167±7 cm (range 155 to 180 cm). […]
Analysis of serum samples for determination of ethinyl estradiol was performed at Pharmaco LSR, Richmond, Va. Ethinylestradiol serum concentrations were determined using a gas chromatography/mass spectrometry (GC/MS) method. […] This method has been validated over 17α-ethinylestradiol concentrations ranging from 2.00 to 256 pg/mL for a 1.0 mL serum volume, with a minimum quantitation limit of 2.00 pg/mL.
Ethinylestradiol pharmacokinetic parameters were estimated following two single doses, on Day 1 and Day 29, using noncompartmental methods. The pharmacokinetic parameters were calculated using the intended sampling times; all samples were collected within 10% of intended sampling times. […] The area under the plasma concentration-time curve (AUC∞) was calculated as the sum of AUCt, the area up to the last measurable concentration computed using the linear trapezoidal rule, and the extrapolation to infinity, calculated as the quotient of the last measurable concentration (Ct) and the terminal elimination rate constant (β). The terminal elimination rate constant was calculated as the negative of the slope of the regression of the logarithms of the plasma concentrations vs. time, starting at 18 h post-dose. […]

[2] = tested on: UGT1A1; assay: Hepatic 17α-ethinylestradiol glucuronidation activity in liver microsomes of treated rats
[3] = tested on: 1-naphthol glucuronidation; assay: Hepatic 1-naphthol glucuronidation activity in liver microsomes of treated rats
[4] = tested on: 3-methylcholanthrene-inducible UDP-glucuronosyltransferase; assay: Rat liver microarray (Affymetrix Rat U34), UGT1A probe induction; format: in vivo, Sprague-Dawley rats
[5] = tested on: UDP-glucuronosyltransferase 1A (UGT1A); assay: Rat liver microarray, all UGT1A probe sets; format: in vivo, Sprague-Dawley rats; conditions: dose levels of 100 mg/kg and higher, after 1 and 3 days of treatment
[6] = tested on: UDP-glucuronosyltransferase 1 family, member 1; assay: Rat liver microarray (Affymetrix Rat U34), UGT1A probe induction; format: in vivo, Sprague-Dawley rats; conditions: 3-Day Studies
[7] = tested on: UDP glucuronosyltransferase, exon 1.; assay: as above; format: in vivo, Sprague-Dawley rats
[8] = tested on: bilirubin conjugation in human microsomes; conditions: in vitro system of human microsomes; cited from earlier work
[9] = subjects taking atazanavir, one study; cited from earlier work
[10] = molecular target: T1, UGT1A1 isoform (Homo sapiens, UniProt P22309); conditions: human cells transfected with the UGT1A1 isoform; cited from earlier work
T1 sequence (P22309 26-533): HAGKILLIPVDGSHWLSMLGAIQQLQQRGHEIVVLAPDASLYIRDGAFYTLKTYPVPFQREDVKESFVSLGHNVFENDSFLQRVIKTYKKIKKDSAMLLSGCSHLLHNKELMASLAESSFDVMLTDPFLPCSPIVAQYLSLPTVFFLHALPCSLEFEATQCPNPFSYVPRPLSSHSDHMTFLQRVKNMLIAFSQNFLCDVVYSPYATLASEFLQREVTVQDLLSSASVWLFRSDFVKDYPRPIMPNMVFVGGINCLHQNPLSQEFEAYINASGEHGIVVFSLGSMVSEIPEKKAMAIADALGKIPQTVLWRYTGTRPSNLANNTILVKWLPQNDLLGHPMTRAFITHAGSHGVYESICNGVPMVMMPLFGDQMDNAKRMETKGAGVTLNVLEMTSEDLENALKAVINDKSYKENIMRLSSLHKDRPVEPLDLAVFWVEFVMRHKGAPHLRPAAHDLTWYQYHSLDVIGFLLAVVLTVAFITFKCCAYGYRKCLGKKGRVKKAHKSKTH

[11] = tested on: bilirubin-conjugating activity; conditions: cited from earlier work
[12] = serum ethinylestradiol, single 50 μg oral contraceptive dose, Mean ± SD, n = 23, alone Day 1, with ritonavir 500 mg q12h Day 29
[13] = 1-Day Studies, 50 mg/kg oral (second column)
[14] = 3-Day Studies, 100 mg/kg oral daily
[15] = 3-Day Studies, 125 mg/kg oral daily

For `C#C[C@]1(O)CC[C@H]2[C@@H]3CCc4cc(O)ccc4[C@H]3CC[C@@]21C` [Ethinylestradiol, 17α-ethinylestradiol], the Tmax [1, 12] was 4.0 ± 1.7 h, the “β (terminal elimination rate constant)” value [1, 12] was 0.0407 ± 0.0082 h⁻¹ and the “time at which serum ethinylestradiol concentrations peaked post-dose” value ([1]; single dose of oral contraceptive) was “approximately 4 h”.
`CCC1(c2ccccc2)C(=O)NC(=O)NC1=O` [Phenobarbitol] showed a 17α-ethinylestradiol glucuronidation ([2]; Females, T3: phenobarbital 50 mg/kg intraperitoneal daily 4 days, 100 μM substrate) of 91.0 ± 34.0 pmol/mg/min, a 17α-ethinylestradiol glucuronidation ([2]; Females, T3: phenobarbital 50 mg/kg intraperitoneal daily 4 days, 250 μM substrate) of 360.6 ± 88.1 pmol/mg/min and a 17α-ethinylestradiol glucuronidation ([2]; Males, T3: phenobarbital 50 mg/kg intraperitoneal daily 4 days, 100 μM substrate) of 45.1 ± 16.5 pmol/mg/min. The 17α-ethinylestradiol glucuronidation ([2]; Males, T3: phenobarbital 50 mg/kg intraperitoneal daily 4 days, 250 μM substrate) was 258.5 ± 98.5 pmol/mg/min, the 1-naphthol glucuronidation ([3]; Females, T3: phenobarbital 50 mg/kg intraperitoneal daily 4 days, 50 μM substrate) was 9.3 ± 0.4 nmol/mg/min and the 1-naphthol glucuronidation ([3]; Females, T3: phenobarbital 50 mg/kg intraperitoneal daily 4 days, 1000 μM substrate) was 46.4 ± 8.6 nmol/mg/min. The 1-naphthol glucuronidation ([3]; Males, T3: phenobarbital 50 mg/kg intraperitoneal daily 4 days, 50 μM substrate) was 15.4 ± 3.1 nmol/mg/min and the 1-naphthol glucuronidation ([3]; Males, T3: phenobarbital 50 mg/kg intraperitoneal daily 4 days, 1000 μM substrate) was 41.0 ± 5.0 nmol/mg/min.
Molecule `CC(C)c1nc(CN(C)C(=O)N[C@H](C(=O)N[C@@H](Cc2ccccc2)C[C@H](O)[C@H](Cc2ccccc2)NC(=O)OCc2cncs2)C(C)C)cs1` [Ritonavir] has a Fold change ([4]; 1-Day Studies, 20 mg/kg oral (first column)) of 1.83 fold, a Fold change ([4]; 1-Day Studies, 20 mg/kg oral (second column)) of 1.54 fold and a Fold change ([4]; 1-Day Studies, 50 mg/kg oral (first column)) of 1.63 fold. For the same molecule, the Fold change [4, 13] was 2.1 fold, the Fold change ([4]; 3-Day Studies, 50 mg/kg oral daily (first column)) was 1.54 fold and the Fold change ([4]; 3-Day Studies, 50 mg/kg oral daily (second column)) was 1.85 fold. For the same molecule, the Fold change ([4]; 3-Day Studies, 75 mg/kg oral daily) was 1.97 fold, the Fold change [4, 14] was 2.26 fold and the Fold change [4, 15] was 2.25 fold. It also gave a 17α-ethinylestradiol glucuronidation ([2]; Females, T1: ritonavir 15 mg/kg oral daily 14 days, 100 μM substrate) of 54.5 ± 24.0 pmol/mg/min, a 17α-ethinylestradiol glucuronidation ([2]; Females, T1: ritonavir 15 mg/kg oral daily 14 days, 250 μM substrate) of 336.4 ± 75.8 pmol/mg/min and a 17α-ethinylestradiol glucuronidation ([2]; Females, T2: ritonavir 50 mg/kg oral daily 14 days, 100 μM substrate) of 146.5 ± 26.0 pmol/mg/min. For the same molecule, the 17α-ethinylestradiol glucuronidation ([2]; Females, T2: ritonavir 50 mg/kg oral daily 14 days, 250 μM substrate) was 590.9 ± 101.2 pmol/mg/min, the 17α-ethinylestradiol glucuronidation ([2]; Males, T1: ritonavir 15 mg/kg oral daily 14 days, 100 μM substrate) was 58.8 ± 2.2 pmol/mg/min and the 17α-ethinylestradiol glucuronidation ([2]; Males, T1: ritonavir 15 mg/kg oral daily 14 days, 250 μM substrate) was 171.8 ± 38.1 pmol/mg/min. For the same molecule, the 17α-ethinylestradiol glucuronidation ([2]; Males, T2: ritonavir 50 mg/kg oral daily 14 days, 100 μM substrate) was 34.0 ± 10.0 pmol/mg/min, the 17α-ethinylestradiol glucuronidation ([2]; Males, T2: ritonavir 50 mg/kg oral daily 14 days, 250 μM substrate) was 290.1 ± 45.6 pmol/mg/min and the “glucuronidation of 17α-ethinylestradiol, a UGT1A1 substrate” value ([2]; both male and female rats) was “significantly increase”. For the same molecule, the “increase in glucuronidation of 17α-ethinylestradiol” value ([2]; both male and female rats treated with 50 mg/kg/day) was 2 fold, the “UG1A levels for all probe sets” value [5] was “consistent increase” and the Fold change ([6]; 50 mg/kg oral daily (first column)) was 1.31 fold. It also gave a Fold change ([6]; 50 mg/kg oral daily (second column)) of 1.33 fold, a 1-naphthol glucuronidation ([3]; Females, T1: ritonavir 15 mg/kg oral daily 14 days, 50 μM substrate) of 7.3 ± 1.2 nmol/mg/min and a 1-naphthol glucuronidation ([3]; Females, T1: ritonavir 15 mg/kg oral daily 14 days, 1000 μM substrate) of 33.7 ± 5.2 nmol/mg/min. For the same molecule, the 1-naphthol glucuronidation ([3]; Females, T2: ritonavir 50 mg/kg oral daily 14 days, 50 μM substrate) was 10.0 ± 2.7 nmol/mg/min, the 1-naphthol glucuronidation ([3]; Females, T2: ritonavir 50 mg/kg oral daily 14 days, 1000 μM substrate) was 37.7 ± 4.9 nmol/mg/min and the 1-naphthol glucuronidation ([3]; Males, T1: ritonavir 15 mg/kg oral daily 14 days, 50 μM substrate) was 9.5 ± 1.5 nmol/mg/min. The 1-naphthol glucuronidation ([3]; Males, T1: ritonavir 15 mg/kg oral daily 14 days, 1000 μM substrate) was 23.0 ± 2.5 nmol/mg/min, the 1-naphthol glucuronidation ([3]; Males, T2: ritonavir 50 mg/kg oral daily 14 days, 50 μM substrate) was 8.3 ± 1.4 nmol/mg/min and the 1-naphthol glucuronidation ([3]; Males, T2: ritonavir 50 mg/kg oral daily 14 days, 1000 μM substrate) was 22.8 ± 4.3 nmol/mg/min. For the same molecule, the Fold change [7, 13] was 2.43 fold, the Fold change [7, 14] was 3.96 fold and the Fold change [7, 15] was 5.06 fold.
In the case of `COC(=O)N[C@H](C(=O)N[C@@H](Cc1ccccc1)[C@@H](O)CN(Cc1ccc(-c2ccccn2)cc1)NC(=O)[C@@H](NC(=O)OC)C(C)(C)C)C(C)(C)C` [atazanavir, Atazanavir], the “inhibition of bilirubin conjugation” value [8] is listed as “inhibits bilirubin conjugation in the micromolar range”, the “subjects exhibiting unconjugated hyperbilirubinemia” value [9] is listed as 57% and the “inhibition of bilirubin conjugation” value [10] is listed as “inhibits bilirubin conjugation in the micromolar range”.
In the case of `CC(C)(C)NC(=O)[C@@H]1CN(Cc2cccnc2)CCN1C[C@@H](O)C[C@@H](Cc1ccccc1)C(=O)N[C@H]1c2ccccc2C[C@H]1O` [indinavir, Indinavir], the “inhibition of bilirubin-conjugating activity” value [11] is given as “direct inhibition of bilirubin-conjugating activity”.
